Results reported in the NIST ThermoML archive (doi:10.1016/j.jct.2018.12.012).
± gives the expanded uncertainty stated by the source.

Assay: xn = mol fraction of the nth substance listed
Settings: 100 kPa, Liquid; for speed of sound: Frequency=3 MHz, Single path-length method; for mass density: Vibrating tube method

CCCCNCCCC [dibutylamine] + CCC(C)O
Settings	mass density, 293.15 K [kg/m3]	mass density, 298.15 K [kg/m3]	mass density, 303.15 K [kg/m3]	mass density, 308.15 K [kg/m3]	speed of sound, 293.15 K [m/s]	speed of sound, 298.15 K [m/s]	speed of sound, 303.15 K [m/s]	speed of sound, 308.15 K [m/s]
x1 = 0.0995	802.339 ± 1.4	798.045 ± 1.4	793.785 ± 1.4	789.452 ± 1.4	1242.3 ± 6.2	1223.7 ± 6.2	1205 ± 6.2	1186.7 ± 6.2
x1 = 0.2027	796.429 ± 1.4	792.197 ± 1.4	787.914 ± 1.4	783.574 ± 1.4	1249.9 ± 6.2	1231 ± 6.2	1211.9 ± 6.2	1193.6 ± 6.2
x1 = 0.3027	791.522 ± 1.4	787.26 ± 1.4	782.952 ± 1.4	778.597 ± 1.4	1254.5 ± 6.2	1235.3 ± 6.2	1216.2 ± 6.2	1197.1 ± 6.2
x1 = 0.3993	786.764 ± 1.4	782.487 ± 1.4	778.177 ± 1.4	773.83 ± 1.4	1257.8 ± 6.2	1238.8 ± 6.2	1219.4 ± 6.2	1200.1 ± 6.2
x1 = 0.4995	781.846 ± 1.4	777.578 ± 1.4	773.281 ± 1.4	768.951 ± 1.4	1260.6 ± 6.2	1241.1 ± 6.2	1221.7 ± 6.2	1202.6 ± 6.2
x1 = 0.6007	776.991 ± 1.4	772.741 ± 1.4	768.441 ± 1.4	764.17 ± 1.4	1261 ± 6.2	1241.4 ± 6.2	1221.9 ± 6.2	1202.6 ± 6.2
x1 = 0.7	772.61 ± 1.4	768.394 ± 1.4	764.156 ± 1.4	759.896 ± 1.4	1261.9 ± 6.3	1242.7 ± 6.3	1223.1 ± 6.3	1203.9 ± 6.3
x1 = 0.8002	768.643 ± 1.4	764.449 ± 1.4	760.24 ± 1.4	756.011 ± 1.4	1263.6 ± 6.3	1243.7 ± 6.3	1224 ± 6.3	1204.4 ± 6.3
x1 = 0.8989	764.755 ± 1.4	760.595 ± 1.4	756.428 ± 1.4	752.248 ± 1.4	1264.1 ± 6.3	1244.4 ± 6.3	1224.6 ± 6.3	1204.8 ± 6.3
x1 = 1	759.579 ± 1.4	755.48 ± 1.4	751.374 ± 1.4	747.268 ± 1.4	1260.1 ± 6.3	1240.1 ± 6.3	1220.3 ± 6.3	1200.6 ± 6.3

CCCCNCCCC [dibutylamine] + CCCC(C)O
Settings	mass density, 293.15 K [kg/m3]	mass density, 298.15 K [kg/m3]	mass density, 303.15 K [kg/m3]	mass density, 308.15 K [kg/m3]	speed of sound, 293.15 K [m/s]	speed of sound, 298.15 K [m/s]	speed of sound, 303.15 K [m/s]	speed of sound, 308.15 K [m/s]
x1 = 0.1007	804.553 ± 1.5	800.484 ± 1.5	796.354 ± 1.5	792.163 ± 1.5	1257.5 ± 6.5	1238.8 ± 6.5	1220.2 ± 6.5	1201.8 ± 6.5
x1 = 0.1998	799.644 ± 1.5	795.528 ± 1.5	791.368 ± 1.5	787.153 ± 1.5	1261.6 ± 6.5	1243 ± 6.5	1224.2 ± 6.5	1205.4 ± 6.5
x1 = 0.3001	794.588 ± 1.5	790.443 ± 1.5	786.26 ± 1.5	782.034 ± 1.5	1264.1 ± 6.4	1245.1 ± 6.4	1226.2 ± 6.4	1207.6 ± 6.4
x1 = 0.4	789.453 ± 1.5	785.286 ± 1.5	781.088 ± 1.5	776.854 ± 1.5	1265 ± 6.4	1246.3 ± 6.4	1227.2 ± 6.4	1208.3 ± 6.4
x1 = 0.5004	784.348 ± 1.4	780.174 ± 1.4	775.972 ± 1.4	771.739 ± 1.4	1265.7 ± 6.4	1246.5 ± 6.4	1227.4 ± 6.4	1208.4 ± 6.4
x1 = 0.6	779.579 ± 1.4	775.399 ± 1.4	771.197 ± 1.4	766.971 ± 1.4	1266 ± 6.4	1247 ± 6.4	1227.7 ± 6.4	1208.5 ± 6.4
x1 = 0.7004	774.754 ± 1.4	770.581 ± 1.4	766.391 ± 1.4	762.183 ± 1.4	1266.2 ± 6.3	1246.7 ± 6.3	1227.3 ± 6.3	1208.2 ± 6.3
x1 = 0.7993	770.026 ± 1.4	765.866 ± 1.4	761.694 ± 1.4	757.505 ± 1.4	1265.8 ± 6.3	1246.4 ± 6.3	1227.8 ± 6.3	1207.2 ± 6.3
x1 = 0.9004	765.576 ± 1.4	761.434 ± 1.4	757.282 ± 1.4	753.116 ± 1.4	1265.8 ± 6.3	1245.8 ± 6.3	1226 ± 6.3	1206.7 ± 6.3
x1 = 1	759.579 ± 1.4	755.48 ± 1.4	751.374 ± 1.4	747.268 ± 1.4	1260.1 ± 6.3	1240.1 ± 6.3	1220.3 ± 6.3	1200.6 ± 6.3

CC(C)NC(C)C [diisopropylamine] + CCC(C)O
Settings	mass density, 293.15 K [kg/m3]	mass density, 298.15 K [kg/m3]	mass density, 303.15 K [kg/m3]	mass density, 308.15 K [kg/m3]	speed of sound, 293.15 K [m/s]	speed of sound, 298.15 K [m/s]	speed of sound, 303.15 K [m/s]	speed of sound, 308.15 K [m/s]
x1 = 0.1005	799.801 ± 1.4	795.472 ± 1.4	791.07 ± 1.4	786.592 ± 1.4	1230.8 ± 6.2	1211.7 ± 6.2	1192.3 ± 6.2	1173.4 ± 6.2
x1 = 0.1994	792.039 ± 1.4	787.516 ± 1.4	782.932 ± 1.4	778.279 ± 1.4	1226.2 ± 6.2	1205.7 ± 6.2	1185.3 ± 6.2	1165 ± 6.2
x1 = 0.3003	783.508 ± 1.4	778.829 ± 1.4	774.115 ± 1.4	769.331 ± 1.4	1217.3 ± 6.2	1196.2 ± 6.2	1175.6 ± 6.2	1154 ± 6.2
x1 = 0.3999	774.58 ± 1.4	769.813 ± 1.4	765.003 ± 1.4	760.146 ± 1.4	1205.6 ± 6.2	1183.8 ± 6.2	1162.3 ± 6.2	1141.1 ± 6.2
x1 = 0.5	764.776 ± 1.4	759.954 ± 1.4	755.099 ± 1.4	750.197 ± 1.4	1191 ± 6.2	1169.2 ± 6.2	1147.4 ± 6.2	1125.6 ± 6.2
x1 = 0.5961	755.456 ± 1.4	750.604 ± 1.4	745.72 ± 1.4	740.801 ± 1.4	1176.6 ± 6.2	1154.3 ± 6.2	1132.2 ± 6.2	1110.4 ± 6.2
x1 = 0.6964	745.553 ± 1.4	740.705 ± 1.4	735.88 ± 1.4	731.103 ± 1.4	1160.7 ± 6.3	1139 ± 6.3	1116.3 ± 6.3	1094.2 ± 6.3
x1 = 0.7997	736.007 ± 1.4	731.125 ± 1.4	726.228 ± 1.4	721.299 ± 1.4	1145.2 ± 6.3	1122.7 ± 6.3	1100.3 ± 6.3	1078.3 ± 6.3
x1 = 0.8967	726.62 ± 1.4	721.759 ± 1.4	716.873 ± 1.4	711.96 ± 1.4	1129.7 ± 6.3	1107 ± 6.3	1084.5 ± 6.3	1062.5 ± 6.3
x1 = 1	717.305 ± 1.4	712.441 ± 1.4	707.55 ± 1.4	702.661 ± 1.4	1116.4 ± 6.3	1093.8 ± 6.3	1071.1 ± 6.3	1043.5 ± 6.3

CC(C)NC(C)C [diisopropylamine] + CCCC(C)O
Settings	mass density, 293.15 K [kg/m3]	mass density, 298.15 K [kg/m3]	mass density, 303.15 K [kg/m3]	mass density, 308.15 K [kg/m3]	speed of sound, 293.15 K [m/s]	speed of sound, 298.15 K [m/s]	speed of sound, 303.15 K [m/s]	speed of sound, 308.15 K [m/s]
x1 = 0.0998	803.093 ± 1.5	798.887 ± 1.5	794.621 ± 1.5	790.277 ± 1.5	1248.1 ± 6.5	1229 ± 6.5	1209.9 ± 6.5	1190.3 ± 6.5
x1 = 0.2001	795.724 ± 1.5	791.357 ± 1.5	786.936 ± 1.5	782.457 ± 1.5	1241.1 ± 6.5	1220.9 ± 6.5	1200.8 ± 6.5	1181.5 ± 6.5
x1 = 0.3	787.848 ± 1.5	783.455 ± 1.5	778.721 ± 1.5	774.03 ± 1.5	1230 ± 6.4	1209.5 ± 6.4	1189.3 ± 6.4	1168.8 ± 6.4
x1 = 0.4001	778.463 ± 1.5	773.871 ± 1.5	769.242 ± 1.5	764.565 ± 1.5	1216.8 ± 6.4	1196.3 ± 6.4	1175.3 ± 6.4	1154.3 ± 6.4
x1 = 0.5006	768.901 ± 1.4	764.237 ± 1.4	759.54 ± 1.4	754.802 ± 1.4	1201.8 ± 6.4	1180.2 ± 6.4	1158.9 ± 6.4	1137.8 ± 6.4
x1 = 0.6001	758.906 ± 1.4	754.192 ± 1.4	749.437 ± 1.4	744.665 ± 1.4	1185.2 ± 6.4	1164 ± 6.4	1142.1 ± 6.4	1120.9 ± 6.4
x1 = 0.678	751.419 ± 1.4	746.673 ± 1.4	741.893 ± 1.4	737.079 ± 1.4	1172.8 ± 6.3	1151 ± 6.3	1129.1 ± 6.3	1107.4 ± 6.3
x1 = 0.7975	738.446 ± 1.4	733.65 ± 1.4	728.827 ± 1.4	723.973 ± 1.4	1152.6 ± 6.3	1130.2 ± 6.3	1108.1 ± 6.3	1086.2 ± 6.3
x1 = 0.8993	728.166 ± 1.4	723.262 ± 1.4	718.39 ± 1.4	713.692 ± 1.4	1132.8 ± 6.3	1110.2 ± 6.3	1087.8 ± 6.3	1063.8 ± 6.3
x1 = 1	717.305 ± 1.4	712.441 ± 1.4	707.55 ± 1.4	702.661 ± 1.4	1116.4 ± 6.3	1093.8 ± 6.3	1071.1 ± 6.3	1043.5 ± 6.3
